For 30 compounds, IC50 results are on record in patent publication US20230391786A1, “cGAS INHIBITORS” (Eli Lilly and Company, priority 2022, published 2023).

Where a name gives a salt, the structure may show the parent alone. A value given as a limit tells only on which side of the number the result lay.

One assay addresses recombinant human cGAS (Homo sapiens (Human), UniProt Q8N884). Kind of assay: In vitro inhibition assay of cGAS activity (cGAMP production, RapidFire mass spectrometry). The format is biochemical. To be noted: 10 nM recombinant human cGAS, 60 nM 75-bp dsDNA, ATP, GTP, room temperature 3 hours, read-out: IC50 (μM), In vitro inhibition assay for Compounds 95-348. The procedure, abridged:
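Full-length His6-tagged human cGAS (10 nM, E. coli-expressed) was incubated 3 h at room temperature with 60 nM 75-bp dsDNA, ATP, 50 μM GTP and compound at pH 7.5 with 5 mM MgCl2. cGAMP formation was measured by RapidFire mass spectrometry, and IC50 was taken from a 4-parameter logistic fit.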

The test system of assay [1] is cGAS activity in THP1 cells (IFNb as marker). Kind of assay: Cellular assay to measure cGAS activity (IFNb production in PMA-differentiated THP1 cells stimulated by RDG-Adenovirus-GFP). The assay is classed as cell-based, human. To be noted: Homo sapiens, THP-1, THP1 cells, PMA differentiated, RDG-Adenovirus-GFP 1000 MOI, IFNb AlphaLISA, overnight incubation; read-out: IC50 (μM), Cellular assay for Compounds 95-348. The procedure, abridged:
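PMA-differentiated THP1 cells were infected with RDG-Adenovirus-GFP at 1000 MOI for 4 h, then exposed overnight to test compounds. IFNb in the supernatant was quantified by AlphaLISA as a cGAS activity marker, and IC50 was fitted with a 4-parameter logistic equation.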
On the technique in general: Bead proximity is the source of the signal in Alpha formats.

Sequence of recombinant human cGAS (Q8N884 whole entry): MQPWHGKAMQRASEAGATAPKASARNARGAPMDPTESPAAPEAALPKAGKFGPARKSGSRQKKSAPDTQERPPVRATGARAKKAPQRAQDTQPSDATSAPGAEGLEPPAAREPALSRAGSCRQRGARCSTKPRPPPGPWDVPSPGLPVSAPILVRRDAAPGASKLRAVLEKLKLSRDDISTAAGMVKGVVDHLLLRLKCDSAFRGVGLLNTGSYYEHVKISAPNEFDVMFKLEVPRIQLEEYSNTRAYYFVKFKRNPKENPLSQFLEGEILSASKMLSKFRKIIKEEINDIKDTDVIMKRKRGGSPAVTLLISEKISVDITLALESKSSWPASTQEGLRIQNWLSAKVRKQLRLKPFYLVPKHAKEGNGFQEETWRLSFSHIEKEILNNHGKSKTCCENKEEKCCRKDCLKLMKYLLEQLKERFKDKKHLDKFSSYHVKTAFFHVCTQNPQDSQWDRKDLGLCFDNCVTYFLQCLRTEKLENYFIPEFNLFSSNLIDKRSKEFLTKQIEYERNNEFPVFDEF

In general, IC50 refers to the concentration at which inhibition is half-maximal. Take `Clc1ccc2c(-c3cn[nH]c3)c3n(c2c1Cl)CC(Nc1ncccn1)CC3` (stereo not drawn) [Example 191, 3,4-Dichloro-10-(1H-pyrazol-4-yl)-N-pyrimidin-2-yl-6,7,8,9-tetrahydropyrido[1,2-a]indol-7-amine]: the IC50 was 0.0763 µM on recombinant human cGAS and 8.53 µM in assay [1].

In the case of `OCC(CO)CNc1cc(Cl)c(Cl)c2[nH]cc(-c3cn[nH]c3)c12` [Example 192, 2-[[[6,7-Dichloro-3-(1H-pyrazol-4-yl)-1H-indol-4-yl]amino]methyl]propane-1,3-diol], the IC50 on recombinant human cGAS was found to be 0.0379 µM; in assay [1], 1.29 µM.

As for `OCCCOc1cc(Cl)c(Cl)c2[nH]cc(-c3cn[nH]c3)c12` [Example 193, 3-[[6,7-Dichloro-3-(1H-pyrazol-4-yl)-1H-indol-4-yl]oxy]propan-1-ol], the figures for the IC50 (at recombinant human cGAS; in assay [1]) were 0.00322 µM and 0.143 µM, respectively.

For the compound `OCC(CO)COc1cc(Cl)c(Cl)c2[nH]cc(-c3cn[nH]c3)c12` [Example 194, 2-[[6,7-Dichloro-3-(1H-pyrazol-4-yl)-1H-indol-4-yl]oxymethyl]propane-1,3-diol], the IC50 at recombinant human cGAS was 0.0184 µM; in assay [1], 1.29 µM.

For the compound `CC(=O)NCCn1cc(-c2cn[nH]c2)c2c(NCCCO)cc(Cl)c(Cl)c21` [Example 195, N-[2-[6,7-Dichloro-4-(3-hydroxypropylamino)-3-(1H-pyrazol-4-yl)indol-1-yl]ethyl]acetamide], the figures for the IC50 (on recombinant human cGAS; in assay [1]) were 0.0298 µM and 1.23 µM, respectively.

As to `NCCCCCC(=O)NCC(=O)NC1CCc2c(-c3cn[nH]c3)c3ccc(Cl)c(Cl)c3n2C1` (stereo not drawn) [Example 196, 6-Amino-N-[2-[[3,4-dichloro-10-(1H-pyrazol-4-yl)-6,7,8,9-tetrahydropyrido[1,2-a]indol-7-yl]amino]-2-oxo-ethyl]hexanamide formic acid salt], the concentration for half-maximal inhibition (IC50) is 0.064 µM on recombinant human cGAS and > 10 µM in assay [1].

Consider `N#CCOc1cc(Cl)c(Cl)c2c1c(-c1cn[nH]c1)cn2-c1cn(CCO)nn1` [Example 197, 22-[6,7-Dichloro-1-[1-(2-hydroxyethyl)triazol-4-yl]-3-(1H-pyrazol-4-yl)indol-4-yl]oxyacetonitrile], for which the results for the IC50 (at recombinant human cGAS; in assay [1]) were 0.00893 µM and 1.06 µM, respectively.

As to `OCCCNc1cc(Cl)c(Cl)c2c1c(-c1cn[nH]c1)cn2-c1cn(CCO)nn1` [Example 198, 3-[[6,7-Dichloro-1-[1-(2-hydroxyethyl)triazol-4-yl]-3-(1H-pyrazol-4-yl)indol-4-yl]amino]propan-1-ol], the figures for the IC50 (on recombinant human cGAS; in assay [1]) were 0.011 µM and 0.395 µM, respectively.

As for `CC(=O)Nc1cc(Cl)c(Cl)c2c1c(-c1cn[nH]c1)cn2-c1cn(CCO)nn1` [Example 199, N-[6,7-Dichloro-1-[1-(2-hydroxyethyl)triazol-4-yl]-3-(1H-pyrazol-4-yl)indol-4-yl]acetamide], the IC50 at recombinant human cGAS turned out to be 0.0519 µM; in assay [1], 2.66 µM.

Take `OCCCNc1cc(Cl)cc2c1c(-c1cn[nH]c1)cn2-c1cn(CCO)nn1` [Example 200, 3-[[6-Chloro-1-[1-(2-hydroxyethyl)triazol-4-yl]-3-(1H-pyrazol-4-yl)indol-4-yl]amino]propan-1-ol]: the concentration for half-maximal inhibition (IC50) at recombinant human cGAS came out at 0.0282 µM; in assay [1], 0.292 µM.

As to `CC(=O)Nc1cc(Cl)cc2c1c(-c1cn[nH]c1)cn2-c1cn(CCO)nn1` [Example 201, N-[6-Chloro-1-[1-(2-hydroxyethyl)triazol-4-yl]-3-(1H-pyrazol-4-yl)indol-4-yl]acetamide], the figures for the IC50 (at recombinant human cGAS; in assay [1]) were 0.0777 µM and 4.23 µM, respectively.

For `CC(=O)NC1CCCn2c1c(-c1cn[nH]c1)c1c(OCC#N)cc(Cl)c(Cl)c12` (stereo not drawn) [Example 202, N-[3,4-Dichloro-1-(cyanomethoxy)-10-(1H-pyrazol-4-yl)-6,7,8,9-tetrahydropyrido[1,2-a]indol-9-yl]acetamide], the IC50 on recombinant human cGAS is 0.0191 µM; in assay [1], 2.68 µM.

On to `Cc1nnc(N2CCn3c(c(-c4cn[nH]c4)c4c(OCC#N)cc(Cl)c(Cl)c43)C2)s1` [Example 203, 2-((6,7-Dichloro-2-(5-methyl-1,3,4-thiadiazol-2-yl)-10-(1H-pyrazol-4-yl)-1,2,3,4-tetrahydropyrazino[1,2-a]indol-9-yl)oxy)acetonitrile], for which the IC50 came out at 0.00677 µM at recombinant human cGAS and 0.374 µM in assay [1].

`N#CCOc1cc(Cl)c(Cl)c2c1c(-c1cn[nH]c1)c1n2CCN(c2ncccn2)C1` [Example 204, 2-[[6,7-Dichloro-10-(1H-pyrazol-4-yl)-2-pyrimidin-2-yl-3,4-dihydro-1H-pyrazino[1,2-a]indol-9-yl]oxy]acetonitrile]: the IC50 at recombinant human cGAS was found to be 0.0201 µM; in assay [1], 0.854 µM.

In the case of `CC(CO)CNc1cc(Cl)c(Cl)c2[nH]cc(-c3cn[nH]c3)c12` (stereo not drawn) [Example 205, 3-[[6,7-Dichloro-3-(1H-pyrazol-4-yl)-1H-indol-4-yl]amino]-2-methyl-propan-1-ol], the values for the IC50 (on recombinant human cGAS; in assay [1]) were 0.0287 µM and 1.32 µM, respectively.

For the compound `Clc1cc(OC2COC2)c2c(-c3cn[nH]c3)c[nH]c2c1Cl` [Example 206, 6,7-Dichloro-4-(oxetan-3-yloxy)-3-(1H-pyrazol-4-yl)-1H-indole], the IC50 at recombinant human cGAS is 0.0421 µM; in assay [1], 1.28 µM.

Take `O[C@H]1C[C@@H](Oc2cc(Cl)c(Cl)c3[nH]cc(-c4cn[nH]c4)c23)C1` [Example 207, Cis-3-[[6,7-Dichloro-3-(1H-pyrazol-4-yl)-1H-indol-4-yl]oxy]cyclobutanol]: the results for the concentration for half-maximal inhibition (IC50) (at recombinant human cGAS; in assay [1]) were 0.042 µM and 1.63 µM, respectively.

For the compound `F[C@H]1C[C@@H](Nc2cc(Cl)c(Cl)c3[nH]cc(-c4cn[nH]c4)c23)C1` [Example 208, Cis-6,7-Dichloro-N-(3-fluorocyclobutyl)-3-(1H-pyrazol-4-yl)-1H-indol-4-amine], the IC50 on recombinant human cGAS was 0.0416 µM; in assay [1], 2.54 µM.

In the case of `OCCc1cc(-n2cc(-c3cn[nH]c3)c3ccc(Cl)c(Cl)c32)on1` [Example 211, 2-[5-[6,7-Dichloro-3-(1H-pyrazol-4-yl)indol-1-yl]isoxazol-3-yl]ethanol], the IC50 came out at 0.0342 µM at recombinant human cGAS and 2.28 µM in assay [1].

As to `O=C(O)Cn1cc(-n2cc(-c3cn[nH]c3)c3ccc(Cl)c(Cl)c32)nn1` [Example 212, 2-[4-[6,7-Dichloro-3-(1H-pyrazol-4-yl)indol-1-yl]triazol-1-yl]acetic acid], the values for the IC50 (on recombinant human cGAS; in assay [1]) were 0.0125 µM and > 10 µM, respectively.

Regarding `NC(=O)Cn1cc(-n2cc(-c3cn[nH]c3)c3ccc(Cl)c(Cl)c32)nn1` [Example 213, 2-[4-[6,7-Dichloro-3-(1H-pyrazol-4-yl)indol-1-yl]triazol-1-yl]acetamide], the values for the IC50 (on recombinant human cGAS; in assay [1]) were 0.0538 µM and 4.1 µM, respectively.

On to `NCCn1cc(-n2cc(-c3cn[nH]c3)c3ccc(Cl)c(Cl)c32)nn1` [Example 214, 2-[4-[6,7-Dichloro-3-(1H-pyrazol-4-yl)indol-1-yl]triazol-1-yl]ethanamine hydrochloride], for which the IC50 worked out at 0.0686 µM at recombinant human cGAS and 0.885 µM in assay [1].

For `CNNc1cc(Cl)c(Cl)c2[nH]cc(-c3cn[nH]c3)c12` [Example 215, 1-[6,7-Dichloro-3-(1H-pyrazol-4-yl)-1H-indol-4-yl]-2-methyl-hydrazine hydrochloride], the results for the IC50 (on recombinant human cGAS; in assay [1]) were 0.0864 µM and 2.59 µM, respectively.

As to `NCC(=O)NCc1[nH]c2c(Cl)c(Cl)ccc2c1-c1cn[nH]c1` [Example 216, 2-Amino-N-[[6,7-dichloro-3-(1H-pyrazol-4-yl)-1H-indol-2-yl]methyl]acetamide formic acid salt], the IC50 on recombinant human cGAS turned out to be 0.0598 µM; in assay [1], 4.17 µM.

`CNCC(=O)NCc1[nH]c2c(Cl)c(Cl)ccc2c1-c1cn[nH]c1` [Example 217, N-[[6,7-Dichloro-3-(1H-pyrazol-4-yl)-1H-indol-2-yl]methyl]-2-(methylamino)acetamide formic acid salt]: the IC50 worked out at 0.0794 µM at recombinant human cGAS and 2.12 µM in assay [1].

`OCCn1cc(-n2cc(-c3cn[nH]c3)c3ccc(Cl)c(F)c32)nn1` [Example 218, 2-[4-[6-Chloro-7-fluoro-3-(1H-pyrazol-4-yl)indol-1-yl]triazol-1-yl]ethanol]: the concentration for half-maximal inhibition (IC50) on recombinant human cGAS amounted to 0.0679 µM; in assay [1] it was 3.27 µM.

For the compound `O=C(Nc1cc(Cl)cc2[nH]cc(-c3cn[nH]c3)c12)C(F)F` [Example 219, N-(6-Chloro-3-(1H-pyrazol-4-yl)-1H-indol-4-yl)-2,2-difluoroacetamide], the IC50 on recombinant human cGAS came out at 0.0348 µM; in assay [1], 0.35 µM.

On to `O=C(CO)NCc1[nH]c2c(Cl)c(Cl)cc(NC(=O)CO)c2c1-c1cn[nH]c1` [Example 221, N-[[6,7-Dichloro-4-[(2-hydroxyacetyl)amino]-3-(1H-pyrazol-4-yl)-1H-indol-2-yl]methyl]-2-hydroxy-acetamide], for which the IC50 at recombinant human cGAS is 0.0238 µM; in assay [1] it was > 10 µM.

`CC(=O)Nc1cc(Cl)c(Cl)c2[nH]c(CNC(=O)CO)c(-c3cn[nH]c3)c12` [Example 222, N-[[4-Acetamido-6,7-dichloro-3-(1H-pyrazol-4-yl)-1H-indol-2-yl]methyl]-2-hydroxy-acetamide]: the IC50 at recombinant human cGAS is 0.0927 µM; in assay [1] it was > 10 µM.

With `O=C(NCc1[nH]c2c(Cl)c(Cl)ccc2c1-c1cn[nH]c1)C1(O)COC1` [Example 223, N-[[6,7-Dichloro-3-(1H-pyrazol-4-yl)-1H-indol-2-yl]methyl]-3-hydroxy-oxetane-3-carboxamide], the IC50 came to 0.0812 µM on recombinant human cGAS and 3.2 µM in assay [1].
